The values that follow come from patent publication US4318904A, “Peptide affinity labels for thrombin and other trypsin-like proteases” (Research Corporation, priority 1980, dated 1982).

The Ki is a measure of affinity in units of concentration, obtained from inhibition or displacement.

In assay [1] the target is T1, thrombin (Homo sapiens, UniProt P00734). The experiment in a line: Inactivation of human thrombin, fibrinogen clotting assay. The conditions noted are these: 4.5×10^-7 M thrombin + 2.25×10^-7 M label; theoretical value 50%. Type of assay: biochemical.
Assay [2] concerns the target T1, thrombin. The experiment in a line: Inactivation of human thrombin, residual esterase activity. The note with it: 4.5×10^-7 M thrombin + 2.25×10^-7 M label; theoretical value 50%. In kind it is biochemical.
For assay [3], the target named is T1, thrombin. The arrangement: Thrombin itself is generated from a pro-enzyme, prothrombin, by the enzymatic action of another proteolytic enzyme, factor Xa. The conditions noted are these: Bajusz et al, page 603; reversible inhibitor; cited from earlier work.
Assay [4] deals with T1, thrombin. The arrangement: Thrombin itself is generated from a pro-enzyme, prothrombin, by the enzymatic action of another proteolytic enzyme, factor Xa. The conditions noted are these: cited from earlier work; for t1/2, half time for the pseudo-first-order inactivation of thrombin / kapp /[I], apparent first order rate constant for inactivation of thrombin / concentration of affinity label: pH 7.0, 25° C; for Ki / k2 / k2 /Ki: Table IV, ref (a) Kettner and Shaw.

Like-named read-outs stand apart in the source and are kept apart here. Where no end group is shown, it is not given here. The star is where a group is joined. CH2Cl = ClC*

Take `N=C(N)NCCC[C@H](NC(=O)[C@@H]1CCCN1C(=O)[C@H](N)Cc1ccccc1)C(=O)CCl` [D-Phe-Pro-ArgCH2 Cl, D-Phe-Pro-Arg-CH2 Cl.2HCl]: the “inactivation of human thrombin by clotting assay” value on thrombin [1] stood at 45%. At thrombin [2], the “inactivation of human thrombin by esterase assay” value is 47%.

Take D-Phe-Pro-Arg-H: the inhibition constant (Ki) on thrombin [3] is 75 nM.

Consider Glu-Gly-ArgCH2 Cl, for which the “t1/2, half time for the pseudo-first-order inactivation of thrombin” value (“t1/2, half time” for short) on thrombin [4] (inhibitor 1.0 × 10^-6 M) is reported as 31 min. Further, the “kapp /[I], apparent first order rate constant for inactivation of thrombin / concentration of affinity label” value on thrombin [4] is 2.20 (min^-1 M^-1) × 10^-4.

With Gly-Val-ArgCH2 Cl, on thrombin [4], the Ki is 13000 nM; the k2 was 0.30 min⁻¹; the “k2 /Ki” value was 383 M⁻¹ s⁻¹; the “kapp /[I], apparent first order rate constant for inactivation of thrombin / concentration of affinity label” value was 1.90 (min^-1 M^-1) × 10^-4. Also, at thrombin [4] (inhibitor 2.0 × 10^-6 M), the “t1/2, half time” value was 18 min.

Take Ile-Pro-ArgCH2 Cl: the “t1/2, half time” value on thrombin [4] (inhibitor 7.5 × 10^-8 M) is given as 22 min. For the same compound, the “kapp /[I], apparent first order rate constant for inactivation of thrombin / concentration of affinity label” value on thrombin [4] is recorded as 42.00 (min^-1 M^-1) × 10^-4.

For the compound Phe-Ala-ArgCH2 Cl, on thrombin [4], the Ki is 2900 nM, the k2 is 0.26 min⁻¹ and the “k2 /Ki” value was 1500 M⁻¹ s⁻¹.

For Phe-Ala-LysCH2 Cl, on thrombin [4], the Ki was 37000 nM, the k2 was 0.34 min⁻¹ and the “k2 /Ki” value is 150 M⁻¹ s⁻¹.

Regarding Pro-Gly-ArgCH2 Cl, the “t1/2, half time” value on thrombin [4] (inhibitor 1.0 × 10^-6 M) is recorded as 57 min. Also, the “kapp /[I], apparent first order rate constant for inactivation of thrombin / concentration of affinity label” value at thrombin [4] is 1.20 (min^-1 M^-1) × 10^-4.

In the case of Pro-Phe-ArgCH2 Cl, the “t1/2, half time” value on thrombin [4] (inhibitor 5.0 × 10^-5 M) is listed as 35 min. For the same compound, the “kapp /[I], apparent first order rate constant for inactivation of thrombin / concentration of affinity label” value at thrombin [4] was 0.04 (min^-1 M^-1) × 10^-4.

Consider Val-Ile-Pro-ArgCH2 Cl (VIPR-CH2Cl), for which the “t1/2, half time” value with thrombin [4] (inhibitor 7.5 × 10^-8 M) is recorded as 13 min. Further, the “kapp /[I], apparent first order rate constant for inactivation of thrombin / concentration of affinity label” value in the assay with thrombin [4] was 73.00 (min^-1 M^-1) × 10^-4.

Take Val-Pro-ArgCH2 Cl: on thrombin [4], the Ki was 670 nM; the k2 was 0.31 min⁻¹; the “k2 /Ki” value was 6670 M⁻¹ s⁻¹; the “kapp /[I], apparent first order rate constant for inactivation of thrombin / concentration of affinity label” value was 54.00 (min^-1 M^-1) × 10^-4. Moreover, the “t1/2, half time” value at thrombin [4] (inhibitor 7.5 × 10^-8 M) is reported as 17 min.

Take Val-Val-ArgCH2 Cl: the “t1/2, half time” value at thrombin [4] (inhibitor 1.0 × 10^-6 M) was 33 min. Also, the “kapp /[I], apparent first order rate constant for inactivation of thrombin / concentration of affinity label” value on thrombin [4] is given as 2.10 (min^-1 M^-1) × 10^-4.
